Source: article PMC12657321, “Pre-clinical evaluation of a potent and effective Pin1-degrading agent in pancreatic cancer” (Molecular Therapy Oncology, 2025)
Non-standard residues stand in square brackets, D forms with d. Residues, ends and D or L forms follow the SMILES beside them. *: point of attachment. Trp(6-Cl) = N[C@@H](Cc1c[nH]c2cc(Cl)ccc12)C(=O)O; Pip = O=C(O)[C@@H]1CCCCN1; ClAc = O=C(CCl)*

How the values were obtained:
[1] = Stability in plasma from Black 6-Cg mice; type: in vitro ADME; conditions: Black 6-Cg (B6-Cg), mouse, 37°C, up to 6 h, acetonitrile quench, LC-MS/MS
Protocol: (§1) A solution of a Pin1 inhibitor was spiked into blank plasma at 1 μg/mL in various solutions, including an aqueous buffer (1× phosphate-buffered saline; Fisher Scientific, Fair Lawn, NJ), human plasma (Innovative Research Inc., Novi, MI), wild-type mouse plasma (Innovative Research Inc., Novi, MI), plasma form esterase-deficient mice (City of Hope, Duarte, CA), and plasma from Black 6-Cg mice (City of Hope, Duarte, CA).
(§2) The spiked plasma samples were incubated at 37°C for up to 6 h. At each designated time point, a 20 μL aliquot of the incubation sample was removed and quenched in 100 μL of acetonitrile. At the end of the incubation, the quenched samples were vortexed and centrifuged for 10 min at 4°C and 20,000 × g. The resulting supernatant was reconstituted and analyzed by LC-MS/MS.
(§3) Table S2. Stability half-life of agents reported in Table 1 after incubation at 37 °C in various media. Acq represents aqueous buffer composed of 1x phosphate buffered saline (Fisher Scientific, Fair Lawn, NJ); human represents human plasma (Innovative Research Inc., Novi, MI); mouse wt represents wild type mouse plasma (Innovative Research Inc., Novi, MI); mouse ES1e represents plasma form esterase deficient mice (City of Hope, Duarte, CA); mouse B6-Cg represents plasma from black 6-Cg mice (City of Hope, Duarte, CA). See Figure 1 for the chemical structures of these compounds.
(§4) Compound Acq Human Mouse Mouse ES1e Mouse

MIA PaCa-2 cells = type: cell-based, human; conditions: 72 h
Protocol: The effect of Pin1 degradation by 164B8 on cell viability was assessed using live-cell analysis (IncuCyte S3). […] Furthermore, to evaluate the acute single-dose toxicity of 164B8 in vivo, CD-1 immune-competent mice were exposed to increasing doses of 164B8. […] Therefore, a maximum tolerated dose was not reached (Figure S12).
Figure S11: Mia PaCa-2 and KPC cells were treated with different doses of 164B8, and the
IncuCyte S3 live-cell analysis system was used to monitor the agent’s activity every 3 hours for
(1 picture or pasted object on this page, not shown here)

NSG mice = test: Toxicity after repeated doses in NSG mice (CBC, observation); type: in vivo, mouse
Protocol: Figure 6 Toxicity of 164B8 after repeated doses in NSG mice Blood from mice treated as described in Figure 5 was collected and evaluated at the end of the experiment. Peripheral blood from mice was collected and analyzed by standard complete blood count (CBC). (A) Body weight, (B) white blood cell (WBC) counts (×10^9 cells/L), (C) hemoglobin (HGB) concentration (g/dL), and (D) platelet counts (×10^9 cells/L, log scale) in peripheral blood were determined. Data are presented as individual values with mean ± SD. Dotted horizontal lines indicate physiological reference ranges. Statistical comparisons were performed using one-way AVOVA; p values are shown in each panel.
Bioluminescent imaging (BLI) was performed one week post-inoculation. Based on imaging intensity, mice were re-grouped to ensure six animals per group. The PIN1 inhibitor was administered via intraperitoneal injection at doses of 30 mg/kg or 60 mg/kg, once daily, 5 days per week for 2 weeks. Tumor engraftment and growth were monitored by in vivo BLI. D-luciferin potassium salt was dissolved in sterile PBS to a final concentration of 16.6 mg/mL and mice were injected intraperitoneally with D-luciferin solution (0.139 g luciferin/kg body weight), then imaged 10–15 min after luciferin injection using an IVIS Spectrum Imaging System (Lago X) with identical exposure times and binning settings for all mice. Bioluminescence signal intensity was quantified as total flux (photons/s) within a region of interest (ROI) using Aura image software. BLI was performed once every week during the treatment. After 2 weeks of treatment, mice were euthanized 6 h after the final dose. Blood samples were collected via cardiac puncture, and normal peritoneum, intestine, and liver tissues were harvested and snap-frozen on dry ice.

[2] = Stability in aqueous buffer (1x PBS); type: physicochemical; conditions: 1x phosphate buffered saline, 1 μg/mL, 37°C, up to 6 h, acetonitrile quench, LC-MS/MS
Protocol: as §1, §2, §3, §4

Human plasma stability = type: in vitro ADME; conditions: 37°C, up to 6 h, acetonitrile quench, LC-MS/MS
Protocol: as §1, §2, §3, §4

[3] = Wild-type mouse plasma stability; type: in vitro ADME; conditions: 37°C, up to 6 h, acetonitrile quench, LC-MS/MS, value given in h, read-out: Stability half-life, Mouse WT (converted)
Protocol: as §1, §2, §3, §4

[4] = 30 mg/kg i.p. for 2 weeks, blood at end of experiment

Q: Which half-life at 1 μg/mL [1] does the source give for CNC(=O)[C@H](Cc1c[nH]c2ccccc12)NC(=O)[C@@H]1CCCCN1C(=O)[C@H](Cc1c[nH]c2cc(Cl)ccc12)NC(=O)CCl [164B8] (ClAc-[Trp(6-Cl)]-[Pip]-Trp-NHMe) here?
A: Its half-life at 1 μg/mL is > 5 h.

Q: And the EC50 (MIA PaCa-2 cells)?
A: Its EC50 is 8.4 µM.

Q: And the “Tolerability of repeated dosing” value (NSG mice; 30 mg/kg i.p. for 2 weeks)?
A: The value was “generally well tolerated”.

Q: What about the “Anemia (hemoglobin, CBC)” value (NSG mice; [4]) of the same compound?
A: Its value is “mild anemia”.

Q: And the “Thrombocytopenia (platelet counts, CBC)” value (NSG mice; [4])?
A: The value was “moderate thrombocytopenia”.

Q: And the “Mice euthanized because of ascites development” value (NSG mice; 60 mg/kg i.p. for 2 weeks, final time point, no obvious carcinomatosis)?
A: Its value is “two of six mice”.

Q: And the “Stability half-life, Acq (aqueous buffer)” value [2]?
A: The value was > 5 h.

Q: And the half-life at 1 μg/mL (Human plasma stability)?
A: The half-life at 1 μg/mL was ~4.5 h.

Q: And the half-life at 1 μg/mL [3]?
A: Its half-life at 1 μg/mL is ~4.5 h.
